Laboratory results: patent US20090311217A1, “3-SUBSTITUTED-1H-INDOLE COMPOUNDS, THEIR USE AS MTOR KINASE AND PI3 KINASE INHIBITORS, AND THEIR SYNTHESES” (priority 2008, published 2009)

What was measured:
Assay type in all cases: biochemical
human TOR = biological target: T1, human TOR (Homo sapiens, UniProt P42345); assay: mTOR enzyme assay (DELFIA, His6-S6K substrate); details: read-out: mTOR Kinase Avg. IC50
T1 construct: FLAG

PI3K-gamma = PI3K-gamma (Homo sapiens, UniProt P48736); assay: PI3K-gamma fluorescence polarization assay; details: PI3Kγ Avg. IC50
PI3K-gamma, sequence (P48736 whole entry, species assumed, the tested form may be a part): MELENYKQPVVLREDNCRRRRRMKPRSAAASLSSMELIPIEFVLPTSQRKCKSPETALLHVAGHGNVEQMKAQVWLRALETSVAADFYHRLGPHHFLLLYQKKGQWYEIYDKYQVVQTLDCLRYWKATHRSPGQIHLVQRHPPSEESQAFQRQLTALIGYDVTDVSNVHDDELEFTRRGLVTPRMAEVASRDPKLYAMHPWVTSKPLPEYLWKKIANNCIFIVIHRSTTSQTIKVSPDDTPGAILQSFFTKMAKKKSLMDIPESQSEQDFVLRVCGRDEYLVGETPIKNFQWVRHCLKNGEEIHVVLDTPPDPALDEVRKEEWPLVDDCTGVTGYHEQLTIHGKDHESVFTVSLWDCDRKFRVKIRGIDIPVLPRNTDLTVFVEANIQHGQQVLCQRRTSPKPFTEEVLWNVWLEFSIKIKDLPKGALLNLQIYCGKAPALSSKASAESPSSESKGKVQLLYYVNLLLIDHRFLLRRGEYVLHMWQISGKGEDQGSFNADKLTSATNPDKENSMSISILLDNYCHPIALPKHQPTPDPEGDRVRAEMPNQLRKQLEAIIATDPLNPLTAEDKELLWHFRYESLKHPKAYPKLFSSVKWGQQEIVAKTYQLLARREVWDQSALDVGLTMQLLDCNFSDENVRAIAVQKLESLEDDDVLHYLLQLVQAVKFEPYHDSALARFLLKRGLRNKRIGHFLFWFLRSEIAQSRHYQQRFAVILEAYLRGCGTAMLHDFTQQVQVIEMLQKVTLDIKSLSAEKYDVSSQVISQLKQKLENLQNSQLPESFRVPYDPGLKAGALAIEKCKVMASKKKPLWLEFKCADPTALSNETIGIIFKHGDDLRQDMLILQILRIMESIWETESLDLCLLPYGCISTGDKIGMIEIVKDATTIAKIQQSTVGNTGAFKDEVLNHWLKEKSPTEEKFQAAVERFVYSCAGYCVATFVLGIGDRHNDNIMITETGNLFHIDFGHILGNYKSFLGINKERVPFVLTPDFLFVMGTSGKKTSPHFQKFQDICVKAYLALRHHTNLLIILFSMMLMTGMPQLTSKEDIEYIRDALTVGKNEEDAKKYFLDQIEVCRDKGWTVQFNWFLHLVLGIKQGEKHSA
In short: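 Reactions in 5 mM HEPES pH 7, 2.5 mM MgCl2, 25 μM ATP with 2.5 μM diC8-PI(4,5)P2 and 5 ng enzyme, 1 h at 25° C, then EDTA quench. Product detected by FP using GST-GRP1 PH domain (100 nM) and BODIPY-TMR-IP4 tracer (5 nM); final DMSO 0.8%.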

PI3K-alpha = PI3K-alpha (Homo sapiens, UniProt P42336); assay: PI3K-alpha fluorescence polarization assay; details: read-out: PI3Kα Avg. IC50
PI3K-alpha, sequence (P42336 whole entry, species assumed): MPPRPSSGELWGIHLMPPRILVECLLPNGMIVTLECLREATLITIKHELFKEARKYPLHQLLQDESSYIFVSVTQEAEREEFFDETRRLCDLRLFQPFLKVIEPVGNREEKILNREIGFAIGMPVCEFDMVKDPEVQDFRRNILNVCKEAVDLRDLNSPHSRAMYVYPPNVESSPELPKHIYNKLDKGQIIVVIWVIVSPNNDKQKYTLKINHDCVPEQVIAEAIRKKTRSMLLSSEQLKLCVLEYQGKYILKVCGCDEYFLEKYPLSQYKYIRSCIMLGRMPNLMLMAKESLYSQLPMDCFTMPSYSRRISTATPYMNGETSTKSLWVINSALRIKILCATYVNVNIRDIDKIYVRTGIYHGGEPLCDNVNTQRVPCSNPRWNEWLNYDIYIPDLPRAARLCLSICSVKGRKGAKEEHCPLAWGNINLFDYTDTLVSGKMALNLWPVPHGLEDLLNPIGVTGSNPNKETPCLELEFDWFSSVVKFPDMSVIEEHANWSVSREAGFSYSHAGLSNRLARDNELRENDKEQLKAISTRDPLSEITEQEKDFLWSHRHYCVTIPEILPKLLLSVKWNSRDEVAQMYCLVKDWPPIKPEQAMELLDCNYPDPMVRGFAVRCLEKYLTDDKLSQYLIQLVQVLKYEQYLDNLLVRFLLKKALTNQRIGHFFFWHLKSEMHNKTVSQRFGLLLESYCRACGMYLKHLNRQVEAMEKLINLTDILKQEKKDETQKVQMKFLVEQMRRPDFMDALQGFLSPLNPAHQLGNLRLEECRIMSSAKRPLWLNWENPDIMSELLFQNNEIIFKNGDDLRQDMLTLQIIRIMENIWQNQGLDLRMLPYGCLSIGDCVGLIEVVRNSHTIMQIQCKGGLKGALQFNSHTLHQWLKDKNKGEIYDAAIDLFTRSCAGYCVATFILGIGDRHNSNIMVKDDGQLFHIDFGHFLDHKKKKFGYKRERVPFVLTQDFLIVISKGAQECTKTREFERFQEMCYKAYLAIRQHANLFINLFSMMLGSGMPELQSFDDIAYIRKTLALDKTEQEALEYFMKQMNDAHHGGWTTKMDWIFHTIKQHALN
PI3K-alpha, sequence (P27986 whole entry partner, species assumed): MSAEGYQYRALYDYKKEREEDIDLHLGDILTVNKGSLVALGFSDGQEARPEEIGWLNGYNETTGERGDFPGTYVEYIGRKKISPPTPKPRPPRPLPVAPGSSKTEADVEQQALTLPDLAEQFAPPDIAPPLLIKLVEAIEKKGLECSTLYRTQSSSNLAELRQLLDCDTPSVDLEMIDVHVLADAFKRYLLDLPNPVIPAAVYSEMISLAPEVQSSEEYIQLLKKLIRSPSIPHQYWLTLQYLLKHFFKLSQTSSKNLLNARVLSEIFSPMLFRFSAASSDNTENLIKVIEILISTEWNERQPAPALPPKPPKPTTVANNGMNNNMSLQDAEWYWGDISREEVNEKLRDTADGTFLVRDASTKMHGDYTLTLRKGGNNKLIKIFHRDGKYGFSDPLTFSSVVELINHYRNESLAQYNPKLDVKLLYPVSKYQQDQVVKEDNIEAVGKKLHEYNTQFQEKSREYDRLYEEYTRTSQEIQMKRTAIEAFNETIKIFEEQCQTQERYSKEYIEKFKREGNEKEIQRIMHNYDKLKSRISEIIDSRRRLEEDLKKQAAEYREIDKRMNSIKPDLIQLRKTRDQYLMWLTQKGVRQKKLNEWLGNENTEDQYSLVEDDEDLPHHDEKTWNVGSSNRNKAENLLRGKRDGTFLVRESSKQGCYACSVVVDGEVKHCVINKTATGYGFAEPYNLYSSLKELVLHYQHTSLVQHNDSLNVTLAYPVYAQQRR

SMILES | IC50 (human TOR) [µM] | IC50 (PI3K-gamma) [µM] | IC50 (PI3K-alpha) [µM]
Cn1c(-c2cccnc2)c(C=C2Oc3cc(O)cc(O)c3C2=O)c2ccccc21 [Example 189, 4,6-dihydroxy-2-[(1-methyl-2-pyridin-3-yl-1H-indol-3-yl)methylene]-1-benzofuran-3(2H)-one] | 0.14 | 11 | 2.71
Cn1c(-c2ccncc2)c(C=C2Oc3cc(O)cc(O)c3C2=O)c2ccccc21 [Example 190, 4,6-dihydroxy-2-[(1-methyl-2-pyridin-4-y1-1H-indol-3-yl)methylene]-1-benzofuran-3(2H)-one] | 0.12 | 8.54 | 2.12
Cn1c(-c2ccc(O)cc2)c(C=C2Oc3cc(O)cc(O)c3C2=O)c2ccccc21 [Example 193, 4,6-dihydroxy-2-{[2-(4-hydroxyphenyl)-1-methyl-1H-indol-3-yl]methylene}-1-benzofuran-3(2H)-one] | 0.085 | 7.66 | 1.12
Cn1c(-c2ccsc2)c(C=C2Oc3cc(O)cc(O)c3C2=O)c2ccccc21 [Example 194, 4,6-dihydroxy-2-{[1-methyl-2-(3-thienyl)-1H-indol-3-yl]methylene}-1-benzofuran-3(2H)-one] | 0.23 | 3.29 | 0.837
Cn1c(-c2cccc(F)c2)c(C=C2Oc3cc(O)cc(O)c3C2=O)c2ccccc21 [Example 197, 2-{[2-(3-fluorophenyl)-1-methyl-1H-indol-3-yl]methylene}-4,6-dihydroxy-1-benzofuran-3(2H)-one] | 0.28 | 9.16 | 1.1
Cn1c(-c2ccc(F)cc2)c(C=C2Oc3cc(O)cc(O)c3C2=O)c2ccccc21 [Example 200, 2-{[2-(4-fluorophenyl)-1-methyl-1H-indol-3-yl]methylene}-4,6-dihydroxy-1-benzofuran-3(2H)-one] | 0.22 | 3.07 | 1.09
Cn1c(-c2ccc(Cl)cc2)c(C=C2Oc3cc(O)cc(O)c3C2=O)c2ccccc21 [Example 201, 2-{[2-(4-chlorophenyl)-1-methyl-1H-indol-3-yl]methylene}-4,6-dihydroxy-1-benzofuran-3(2H)-one] | 0.12 | 5.46 | 0.712
O=C1C(=Cc2c(-c3cccnc3)[nH]c3ccccc23)Oc2cc(O)cc(O)c21 [Example 202, 4,6-dihydroxy-2-[(2-pyridin-3-yl-1H-indol-3-yl)methylene]-1-benzofuran-3(2H)-one] | 0.095 | 7 | 1.05
Cc1noc(C)c1-c1[nH]c2ccccc2c1C=C1Oc2cc(O)cc(O)c2C1=O [Example 204, 2-{[2-(3,5-dimethylisoxazol-4-yl)-1H-indol-3-yl]methylene}-4,6-dihydroxy-1-benzofuran-3(2H)-one] | 0.19 | 6.43 | 1.16
O=C1C(=Cc2c(-c3ccc(O)cc3)[nH]c3ccccc23)Oc2cc(O)cc(O)c21 [Example 206, 4,6-dihydroxy-2-{[2-(4-hydroxyphenyl)-1H-indol-3-yl]methylene}-1-benzofuran-3(2H)-one] | 0.065 | 1.05 | 0.573
CCn1c(-c2ccccc2)c(C=C2Oc3cc(O)cc(O)c3C2=O)c2ccccc21 [Example 213, 2-[(1-ethyl-2-phenyl-1H-indol-3-yl)methylene]-4,6-dihydroxy-1-benzofuran-3(2H)-one] | 0.17 | 2.65 | 0.77
Cn1c(-c2ccccn2)c(C=C2Oc3cc(O)cc(O)c3C2=O)c2ccccc21 [Example 223, 4,6-dihydroxy-2-[(1-methyl-2-pyridin-2-yl-1H-indol-3-yl)methylene]-1-benzofuran-3(2H)-one] | 0.06 | > 10 | 3.66
N#CCCCCn1c(-c2ccccc2)c(C=C2Oc3cc(O)cc(O)c3C2=O)c2ccccc21 [Example 224, 5-{3-[(4,6-dihydroxy-3-oxo-1-benzofuran-2(3H)-ylidene)methyl]-2-phenyl-1H-indol-1-yl}pentanenitrile] | 0.48 | > 10 | 0.751
N#CCCCCCn1c(-c2ccccc2)c(C=C2Oc3cc(O)cc(O)c3C2=O)c2ccccc21 [Example 225, 6-{3-[(4,6-dihydroxy-3-oxo-1-benzofuran-2(3H)-ylidene)methyl]-2-phenyl-1H-indol-1-yl}hexanenitrile] | 0.7 | > 10 | 0.968
N#CCCCn1c(-c2cccnc2)c(C=C2Oc3cc(O)cc(O)c3C2=O)c2ccccc21 [Example 226, 4-{3-[(4,6-dihydroxy-3-oxo-1-benzofuran-2(3H)-ylidene)methyl]-2-pyridin-3-yl-1H-indol-1-yl}butanenitrile] | 0.67 | > 10 | 1.65

Next, values leading:

IC50 (human TOR) [µM] | IC50 (PI3K-gamma) [µM] | IC50 (PI3K-alpha) [µM] | SMILES
7.1 | > 10 | 1.51 | O=C1C(=Cc2c[nH]c3cccc(Br)c23)Oc2cc(O)cc(O)c21 [Example 174, 2-[(4-bromo-1H-indol-3-yl)methylene]-4,6-dihydroxy-1-benzofuran-3(2H)-one]
9 | > 10 | 1.04 | O=C1C(=Cc2c[nH]c3ccc(F)cc23)Oc2cc(O)cc(O)c21 [Example 175, 2-[(5-fluoro-1H-indol-3-yl)methylene]-4,6-dihydroxy-1-benzofuran-3(2H)-one]
9.1 | 3.36 | 0.187 | O=C1C(=Cc2c[nH]c3ccc(I)cc23)Oc2cc(O)cc(O)c21 [Example 177, 4,6-dihydroxy-2-[(5-iodo-1H-indol-3-yl)methylene]-1-benzofuran-3(2H)-one]
12 | > 10 | 1.11 | N#Cc1ccc2[nH]cc(C=C3Oc4cc(O)cc(O)c4C3=O)c2c1 [Example 182, 3-[(4,6-dihydroxy-3-oxo-1-benzofuran-2(3H)-ylidene)methyl]-1H-indole-5-carbonitrile]
0.26 | > 10 | 1.8 | Cn1cc(C=C2Oc3cc(O)cc(O)c3C2=O)c2c(C#N)cccc21 [Example 188, 3-[(4,6-dihydroxy-3-oxo-1-benzofuran-2(3H)-ylidene)methyl]-1-methyl-1H-indole-4-carbonitrile]
0.15 | 6.62 | 1.41 | O=C1C(=Cc2c(-c3ccncc3)[nH]c3ccccc23)Oc2cc(O)cc(O)c21 [Example 203, 4,6-dihydroxy-2-[(2-pyridin-4-yl-1H-indol-3-yl)methylene]-1-benzofuran-3(2H)-one]
0.11 | 2.37 | 0.479 | O=C1C(=Cc2c(-c3cccc(O)c3)[nH]c3ccccc23)Oc2cc(O)cc(O)c21 [Example 205, 4,6-dihydroxy-2-{[2-(3-hydroxyphenyl)-1H-indol-3-yl]methylene}-1-benzofuran-3(2H)-one]
0.19 | 1.48 | 0.674 | O=C1C(=Cc2c(-c3cccc(F)c3)[nH]c3ccccc23)Oc2cc(O)cc(O)c21 [Example 210, 2-{[2-(3-fluorophenyl)-1H-indol-3-yl]methylene}-4,6-dihydroxy-1-benzofuran-3(2H)-one]
0.29 | 2.61 | 0.264 | Cc1[nH]c2ccc(Cl)cc2c1C=C1Oc2cc(O)cc(O)c2C1=O [Example 215, 2-[(5-chloro-2-methyl-1H-indol-3-yl)methylene]-4,6-dihydroxy-1-benzofuran-3(2H)-one]
3.8 | 7.51 | 0.757 | Cn1cc(C=C2Oc3cc(O)cc(O)c3C2=O)c2cc(F)ccc21 [Example 227, 2-[(5-fluoro-1-methyl-1H-indol-3-yl)methylene]-4,6-dihydroxy-1-benzofuran-3(2H)-one]
0.98 | > 10 | 3.57 | Cn1cc(C=C2Oc3cc(O)cc(O)c3C2=O)c2cc([N+](=O)[O-])ccc21 [Example 228, 4,6-dihydroxy-2-[(1-methyl-5-nitro-1H-indol-3-yl)methylene]-1-benzofuran-3(2H)-one]
8.3 | > 10 | 0.735 | Cn1cc(C=C2Oc3cc(O)cc(O)c3C2=O)c2cccc([N+](=O)[O-])c21 [Example 229, 4,6-dihydroxy-2-[(1-methyl-7-nitro-1H-indol-3-yl)methylene]-1-benzofuran-3(2H)-one]
3.4 | > 10 | 2.02 | N#CCCCn1cc(C=C2Oc3cc(O)cc(O)c3C2=O)c2c(Br)cccc21 [Example 230, 4-{4-bromo-3-[(4,6-dihydroxy-3-oxo-1-benzofuran-2(3H)-ylidene)methyl]-1H-indol-1-yl}butanenitrile]
> 20 | 6 | 0.611 | CCc1cccc2c(C=C3Oc4cc(O)cc(O)c4C3=O)cn(CCCC#N)c12 [Example 232, 4-{3-[(4,6-dihydroxy-3-oxo-1-benzofuran-2(3H)-ylidene)methyl]-7-ethyl-1H-indol-1-yl}butanenitrile]
0.36 | 2.82 | 0.288 | Cc1c(C=C2Oc3cc(O)cc(O)c3C2=O)c2cc(Cl)ccc2n1CCCC#N [Example 238, 4-{5-chloro-3-[(4,6-dihydroxy-3-oxo-1-benzofuran-2(3H)-ylidene)methyl]-2-methyl-1H-indol-1-yl}butanenitrile]
> 20 | > 10 | 1 | O=C1C(=Cc2c[nH]c3c(OCc4ccccc4)cccc23)Oc2cc(O)cc(O)c21 [Example 242, 2-{[7-(benzyloxy)-1H-indol-3-yl]methylene}-4,6-dihydroxy-1-benzofuran-3(2H)-one]
17 | > 10 | 1.03 | O=C1C(=Cc2c[nH]c3c(O)cccc23)Oc2cc(O)cc(O)c21 [Example 246, 4,6-dihydroxy-2-[(7-hydroxy-1H-indol-3-yl)methylene]-1-benzofuran-3(2H)-one]
